Data published in publication PMC10135050, “Neutralizing Carbapenem Resistance by Co-Administering Meropenem with Novel β-Lactam-Metallo-β-Lactamase Inhibitors” (Antibiotics, 2023).

Columns and labels:
HepG2 cells = assay: LDH membrane leakage assay; type: cell-based, human
Description: HepG2 cells were cultured in 25 mL cell culture flasks using Eagle’s minimum essentials medium (EMEM) supplemented with 10% fetal bovine serum, 1% pen-strep-fungizone and 1% L-glutamine, maintained in a humidified incubator (37 °C, 5% CO2) until approximately 80% confluence.
The LDH assay was used to assess membrane damage of HepG2 cells. Supernatant collected from control and BP2 treated cells were centrifuged (400× g, 24 °C, 10 min) and dispensed (100 μL/well) in triplicate into a 96-well microtiter plate. LDH reagent (100 μL, 11644793001, Sigma Aldrich, Schnelldorf, Germany) was added to each well. The plate was incubated for 30 min at room temperature in the dark. Absorbance was read using a spectrophotometer (Bio-Tek μQuant,) at […]. Results are represented as relative fold change compared to untreated control.

[1] = test system: Klebsiella pneumoniae USA 449 (NDM); assay: MIC, broth microdilution and checkerboard assay; type: cell-based; conditions: read-out: MIC BP2 Alone
Description: (§1) The Minimum Inhibitory Concentration (MIC) of meropenem BP2 was determined utilizing the broth microdilution assay, as described by the Clinical and Laboratory Standards Institute (CLSI) antimicrobial susceptibility guidelines. The mono-therapeutic effect of each antibiotic and MBLI was evaluated across a panel of MBL-producing Enterobacterales.
(§2) The drug susceptibility profile of meropenem in combination with BP2 was studied using the checkerboard assay. This assay was used to ascertain the effect of two drugs on antimicrobial resistance targeting CRE strains. The assay was performed according to the protocol described previously and was under CLSI antimicrobial susceptibility guidelines. Briefly, twofold dilutions of meropenem with each chelator were made in Cation-adjusted Mueller Hinton Broth (CAMHB) in a 96-well microtiter plate. A 0.5 McFarland-standardized bacterial inoculum was added to each well to obtain a final volume of 100 µL per well. Thereafter, plates were incubated at 37 °C for 18 h under aerobic conditions. The checkerboard assays were performed in triplicate. The MIC was determined as the lowest concentration at which no visible growth was present. The fractional inhibitory concentration index (FICI) was calculated for each combination according to the equation FICI = FICa (MIC of drug A in combination/MIC of drug A alone) + FICb (MIC of drug B in combination/MIC of drug B alone). The FICI was interpreted as follows: synergy, FICI ≤ 0.5; additive 0.5–1; indifference, […] FICI < 4; and antagonism, FICI ≥ 4 [61].

[2] = test system: Escherichia coli TC CARF (VIM-2); assay: MIC, broth microdilution and checkerboard assay; type: cell-based; conditions: read-out: MIC BP2 Alone
Description: as §1, §2

NDM-1 = target: T1, NDM-1 (Klebsiella pneumoniae, UniProt C7C422); assay: Enzyme inhibition kinetics (nitrocefin); type: biochemical
T1 construct: purchased RayBiotech (RayBiotech Life Inc., Peachtree Corners, GA, USA)
T1 sequence (C7C422 29-270, looked up, species assumed): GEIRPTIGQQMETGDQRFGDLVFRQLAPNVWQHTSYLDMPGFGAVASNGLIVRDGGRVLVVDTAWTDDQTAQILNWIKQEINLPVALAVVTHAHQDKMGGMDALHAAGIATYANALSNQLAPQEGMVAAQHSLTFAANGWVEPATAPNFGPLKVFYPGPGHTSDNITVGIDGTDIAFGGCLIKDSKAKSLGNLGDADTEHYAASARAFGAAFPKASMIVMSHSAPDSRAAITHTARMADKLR
Description: (§3) The IC50 was calculated from the generated sigmoidal curves (Figure S1) using GraphPad Prism software version 8.0.2 (GraphPad Inc., San Diego, CA, USA), and the Ki app was calculated using the Cheng–Prusoff equation [43]. […] However, we expect that inhibitors that remove one Zn atom from the enzyme active site will be slow-acting irreversible inhibitors that would require a more detailed kinetic analysis than used here. […] Structurally, BP2 is a thiazole-containing compound, while BP1 lacks this moiety. It is unclear whether the increased inhibition activity is due to the longer distance between the chelator moiety and the lactam moiety, which is less likely to sterically hinder the chelator, or if it is the thiazole itself that boosts the interaction efficacy of the compound.
(§4) A dose-dependent enzyme inhibition assay was performed using a Biotek PowerWave XS2 (Biotek Instruments Inc., Winooski, VT, USA) plate reader. NDM-1 and VIM-2 enzymes were purchased from RayBiotech (RayBiotech Life Inc., Peachtree Corners, GA, USA). Enzymes in the quantity of 1 nM (NDM-1) or 0.5 nM (VIM-2) were used in this study with a fixed nitrocefin concentration of either 120 µM (NDM-1) or 50 µM (VIM-2) and varying BP2 concentrations ranging from 5 to 200 µM (NDM-1) and 2.5 to 300 µM (VIM-2) in 50 mM HEPES buffer supplemented with 100 µg/mL BSA and 10 µM ZnCl2. Inhibition was measured at 482 nm at 25 °C.

VIM-2 = target: T2, VIM-2 (Escherichia coli, UniProt Q5U7L7); assay: Enzyme inhibition kinetics (nitrocefin); type: biochemical
T2 construct: purchased RayBiotech (RayBiotech Life Inc., Peachtree Corners, GA, USA)
Description: as §3, §4

K. pneumoniae NDM = assay: Time-kill study; type: cell-based; conditions: meropenem monotherapy
Description: Time-kill studies were performed according to previously published methods, including those described by CLSI document M26-A [62]. Briefly, an overnight culture of K. pneumoniae NDM was diluted to a 0.5 McFarland standard that correlated to approximately […]. The prepared bacterial suspensions were added to 96-well plates containing a fixed dose of 32 mg/L of BP2 and meropenem in concentrations of 0.5, 1 or 2 mg/L. Plates were incubated at 35 °C and 100 rpm shaking. A bacterial control without adding any drugs was included, and a meropenem-only control employing similar conditions. Viability counts were performed at 0, 2, 4, 6, 8, and 24 h by sampling 0.1 mL, diluting as appropriate, and spreading onto Mueller Hinton agar (MHA). These plates were incubated at 35 °C for at least 18 h. Colonies were enumerated as cfu/mL.

[3] = test system: Escherichia coli ATCC 25922; assay: MIC, broth microdilution and checkerboard assay; type: cell-based; conditions: ATCC25922, E. coli ATCC 25922, no MBL, alone, read-out: MIC MEM Alone
Description: as §1, §2

| SMILES | LDH levels (HepG2 cells; HepG2, 1 µg/mL) | LDH membrane leakage (HepG2 cells; HepG2, 8 µg/mL–200 µg/mL) | Cell membrane integrity (LDH leakage) (HepG2 cells; HepG2, all concentrations tested) | MIC [1] [µg/mL] | MIC [2] [µg/mL] | IC50 (NDM-1; NDM-1 1 nM, nitrocefin 120 µM, mean ± SD) [µM] | Ki (NDM-1; NDM-1, Cheng–Prusoff equation, read-out: Ki app) [µM] | IC50 (VIM-2; VIM-2 0.5 nM, nitrocefin 50 µM, mean ± SD) [µM] | Ki (VIM-2; VIM-2, Cheng–Prusoff equation, read-out: Ki app) [µM] | Increase in bacteria compared to the BP2 + meropenem-treated group (K. pneumoniae NDM) [log10] | MIC [3] [µg/mL] |
| --- | --- | --- | --- | --- | --- | --- | --- | --- | --- | --- | --- |
| CON=C(C(=O)NC1C(=O)N2C(C(=O)O)=C(COC(C)=O)CSC12)c1csc(NC(=O)CC(C(=O)OC)N2CCN(CC(=O)O)CCN(CC(=O)O)CC2)n1 (stereo in doubt) [BP2] | remained unaffected | significantly decreased | not disrupted | > 256 | > 256 | 70.7 ± 4.5 | 35.3 | 57.1 ± 2.9 | 30.9 | – | – |
| C[C@@H](O)[C@H]1C(=O)N2C(C(=O)O)=C(S[C@@H]3CN[C@H](C(=O)N(C)C)C3)[C@H](C)[C@H]12 [Meropenem] | – | – | – | – | – | – | – | – | – | > 2 | 0.06 |
